The values below come from patent publication US20260306463A1, “SIK INHIBITORS TO TREAT CHRONIC KIDNEY DISEASE” (The General Hospital Corporation, priority 2023, published 2026).

“Also recorded” adds a separate entry of the source.

Data set [1] relates to mice with adenine diet-induced chronic kidney disease. Briefly: 8 week adenine diet CKD study, SK-124 versus once daily PTH injections. Type of data set: in vivo, mouse (female CD1). Particulars: 8 weeks. The procedure: FIGS. 4A-4D. […] (A) Study design: Female CD1 mice (n=8/group) were treated with control or 0.2% adenine diet starting at […] of age along with vehicle, PTH (80 mcg/kg/d, IP injections) or SK-124 (40 mg/kg) treatment by oral gavage once daily. Mice were treated for 8 weeks. (B, C) After 8 weeks of treatment, the indicated serum analyte was measured. (D) Whole kidney RNA from the indicated groups was analyzed by RT-qPCR for the indicated fibrosis marker gene.
(§1) 7-week-old female CD1 mice were obtained from Charles River Laboratories (Wilmington, MA) and were fed on 0.2% adenine containing diet (TD.130900; 0.2% Adenine, 0.9% Phosphate, 0.5% Calcium; Envigo) or control diet (TD. 96348) for 6 or 8 weeks to induce chronic kidney disease (CKD). Mice were oral gavaged with 40 mg/kg SK-124, or intraperitonially injected with 80 μg/kg PTH, or treated with vehicle 5 days a week for the duration of the special diet.
For studies with Ubiquitin-Cre^ERt2; Sik2^ff; Sik3^ff mice (JAX #007001 for Ubiquitin-Cre^ERt2: RRID:MGL:5905012 for Sik2 foxed mice; and Sik3^tmla(EUCOMM)Hmgu mice (RRID:MGI:5085429) bred to PGK1 FLPo mice (JAX #011065) in order to generate Sik3 foxed mice), tamoxifen was injected (1 mg, IP, Q48 hours, 3 injections total) in all animals including Cre-negative control littermates housed in cages with Pure-o′Cel bedding at 5 weeks of age. Mice were then fed on 0.2% adenine diet from 6 weeks to 9 weeks of age. Mice were fasted for 6 hours and treated with SK-124 and PTH 4 hours and 2 hours before the sacrifice. Blood and spot urine samples were collected by cheek pouch bleeding and by pipetting urine collected on hydrophobic sand (Labsand; Braintree, MA). Kidneys were immediately snap-frozen in liquid nitrogen for TRIzol (Life Technologies)-Chloroform (Fischer Scientific) based RNA isolation or protein isolation, or fixed in 10% formalin at 4C for 24 hrs for histology. All serum and urine measurements were performed using commercial bioassay detection reagents listed in Table 1, following the manufacturers' instructions. Urine protein levels were measured by Bradford assay and normalized to urine creatinine.
(§2) cDNA was prepared using Primescript RT kit (Takara Inc), with 750 ng RNA per reaction. RT-qPCR was performed by using PerfeCa® SYBR® Green FAstMix® ROX (Quanta bio) in the StepOnePlus™ Real-time PCR System (Applied Biosystems). Hmbs was used as a control housekeeping gene for mouse samples, and B-Actin was used for organoids, relative expression was calculated (2^-deltaCT method) and compared to the mean of control group if necessary. Primers used for RT-qPCR are listed in Table 2 (mouse primers) and Table 3 (human primers).

The next data set concerns human kidney organoids. Kind of data set: cisplatin injury of human kidney organoids: immunostaining, organoid size. Type of data set: cell-based. The following applies: intermittent cisplatin, 5 treatments. The procedure: FIG. 7. SK-124 preserves human kidney organoid integrity in cisplatin injury model. Human kidney organoids derived from H9 embryonic stem cells were treated with intermittent cisplatin (5 separate treatments) based on published protocols along with the indicated agent. Organoids were cryo-sectioned and immuno-stained with the indicated markers. The top panels show low power images and the bottom panels focus on regions of proximal tubule cells. The graph measures the mean diameter of organoids in the control (no cisplatin), cisplatin+DMSO, and cisplatin+SK-124 treatment groups.
BJFF human induced pluripotent stem cells (hPSCs) were maintained on Geltrexcoated (Thermo Fisher Scientific) plates using StemFit Basic04 Complete (Ajinomoto Co. Inc.) as previously reported(25). The cells were passaged weekly using Accutase (STEMCELL Technologies) for dissociation and Y27632 (Tocris) for adhesion. Directed differentiation of hPSCs into kidney organoids has been published elsewhere (29). Briefly, hPSCs were differentiated into metanephric mesenchyme cells on day 8 by a three-step directed differentiation protocol. Metanephric mesenchyme was transferred into suspension culture in 96-well ultralow adhesion plates (Coming) and further differentiated into kidney organoids, as previously reported(25). Quality control measures of SIX2 immunostaining on day 8 of differentiation and CDH1, LTL, PODXL, CD146, MEIS1/2/3, and SYTOX-blue staining on day 21 were performed on all batches of kidney organoids to limit batch-to-batch heterogeneity. Kidney organoids were maintained in 200 μl of basal media consisting of Advanced RPMI (Thermo Fisher Scientific) and GlutaMAX (Thermo Fisher Scientific) in 96-well plates, as previously reported. Media changes were conducted three times weekly with removal of 90 [l and addition of 100 μl of fresh basal media.
For cisplatin induced injury, day 49 organoids were treated with 5 μM cisplatin in basal media after full media change. After 24 hours, full media exchanges were performed. This 24-hour treatment was performed twice a week, on day 52-53, day 56-57, day 59-60, and day 63-64 as well, for a total of five cisplatin treatments. Samples were obtained for RT-qPCR and immunostaining immediately following each 24-hour treatment with cisplatin, and from corresponding controls.
Following the treatment, the organoids were collected and immediately fixed in 4% PFA in PBS for 1 hour at room temperature, submerged in 30% sucrose overnight at 4° C., then embedded in O.C.T. Compound (4585. Fisher HealthCare). Subsequently, […] frozen sections were prepared via cryo-sectioning by a cryostat. After 1 hr blocking at room temperature, the sections were treated overnight at 4° C. with primary antibodies in antibody dilution buffer (ADB) with biotinylated LTL (1:200, B-1325, Vector), rat anti-CDH1 (1:500, ab11512, Abcam), goat anti-PODXL (1:500, AF1658, R&D Systems), as well as the antibody of interest, either mouse anti-p21 (1:200, NBP2-43697, Novus Biologicals), or rabbit anti-γH2AX (1:100, 2577, Cell Signaling) antibodies. For the optimum labeling of LTL by biotin/streptavidin interaction, the Streptavidin/Biotin Blocking Kit (SP-2002, Vector Laboratories) was applied according to the manufacturer's instructions. After washing, the samples were stained for 1 hour at RT with the nuclear dye-SYTOX Blue (1:500. S 11348, Invitrogen) and the corresponding secondary antibodies in ADB such as streptavidin-AF750 (1:500, S21384, Invitrogen), donkey anti-rat IgG-AF594 (1:500, A21209, Invitrogen), donkey anti-goat IgG-AF555 (1:500, A21432, Invitrogen), and donkey anti-rabbit IgG-AF488 (1:500, A21206, Invitrogen) for γH2AX or donkey anti-mouse IgG-AF488 (1:500, A21202, Invitrogen) for p21 antibodies as well as mouse anti-Meisl/⅔ (1:200, sc-101850, SantaCruz) conjugated antibody, and slides were mounted with Vectashield antifade mounting medium (H1000, Vector Laboratories). […]

Data set [2] has as its system SIK isoforms (Sik1, SIK2, Sik3). Briefly: SIK isoform expression in kidneys of adenine diet mice (immunoblot, RT-qPCR, RNAscope). Type of data set: in vivo, mouse. The procedure: FIGS. 2A-2C. SIK isoform expression in adenine-induced chronic kidney disease. (A) Kidney protein lysates were isolated and analyzed by imnunoblotting for SIK2 (top) and GAPDH (bottom). SIK2 protein levels are increased in adenine diet. (B) Whole kidney RNA from the indicated groups was analyzed by RT-qPCR for the indicated SIK isoform. (C) Kidney sections from control and CKD (6 weeks adenine diet) were stained using RNAscope (darker shade) for the indicated SIK isoform.
as §2
(§3) Snap-frozen kidneys were homogenized in NP-40 lysis buffer (FNN0021, Thermo) with using TissueLyserII at 30 Hz for 5 minutes. Samples were rotated at 4 deg for 20 minutes and frozen on dry ice and thawed. After centrifuging for 30 minutes at 4 deg, the supernatants were collected. After determining the protein concentration by Bradford assay, […] of protein was loaded for western blotting. For KGli cells, the cells were washed with cold PBS then scraped into TNT buffer (Tris-NaCl-Tween buffer, 20 mM Tris-HCl pH 8, 200 mM NaCl, 0.5% Triton X-100 containing 1X-protease inhibitor cocktail (Bimake Inc. 100X, Cat. #B14001), 1 mM DTT, 1 mM NaF, 1 mM Vanadate (New England Biolabs)). Next, samples were vortexed for 1 minute and centrifuged at 14,000g for 6 minutes at 4 deg, and the supernatant was collected.
For immunoblotting, the lysates were separated by SDS-PAGE (Bio-rad precast gels), and proteins were transferred to the nitrocellulose membranes. Then, the membranes were blocked in 5% milk in tris-buffered saline plus 0.05% Tween-20 (TBST) and incubated with primary antibody in 5% BSA-TBST overnight at 4° C. Next day, after washing, membranes were incubated with anti-rabbit HRP-coupled secondary antibody (1:2500, Cell Signaling Technology, 7074S) or anti-mouse HRP-coupled secondary antibody (1:2500, Cell Signaling, 7076S), and signals were detected with SuperSignal West Femto Maximum Sensitivity Substrate (Thermo scientific) using the iBright imager (ThermoFisher). […]
Hematoxylin and eosin (H+E) staining was performed on some sections using standard protocols and Masson's Trichome stain for fibrosis was performed according to the manufacturer's instructions (ab150686, abcam). […] Then, the signal was amplified (322310, ACD) and detected using Brown DAB kit (322310, ACD).
Background: A western blot detects proteins with antibodies after separation by electrophoresis.

Data set [3] relates to renal fibrosis, adenine-induced CKD mice. Kind of data set: renal fibrosis in adenine CKD mice (trichrome, immunoblot, RT-qPCR). It counts as in vivo, mouse. The following applies: adenine diet; SK-124 40 mg/kg oral. Here is the method: FIGS. 3A-3C. SK-124 treatment reduces fibrosis in adenine-induced chronic kidney disease. (A) Representative trichrome stained sections from the indicated groups. Darker staining indicates fibrosis which is increased in vehicle-treated adenine diet mice and reduced by SK-124 treatment. (B) Kidney protein lysates were isolated and analyzed by immunoblotting for alpha-smooth muscle actin (αSMA) (top) and GAPDH (bottom). (C) Whole kidney RNA from the indicated groups was analyzed by RT-qPCR for the indicated fibrosis marker.
as §1, §2, §3
For immunoblotting, the lysates were separated by SDS-PAGE (Bio-rad precast gels), and proteins were transferred to the nitrocellulose membranes. Then, the membranes were blocked in 5% milk in tris-buffered saline plus 0.05% Tween-20 (TBST) and incubated with primary antibody in 5% BSA-TBST overnight at 4° C. Next day, after washing, membranes were incubated with anti-rabbit HRP-coupled secondary antibody (1:2500, Cell Signaling Technology, 7074S) or anti-mouse HRP-coupled secondary antibody (1:2500, Cell Signaling, 7076S), and signals were detected with SuperSignal West Femto Maximum Sensitivity Substrate (Thermo scientific) using the iBright imager (ThermoFisher). The antibodies used are: SIK2 (1:1000, Cell Signaling, 6919), GAPDH (1:1000, Cell Signaling, 2118), αSMA (1:1000, Invitrogen, 14-9760-82), pSMAD3 (1:1000, Cell Signaling, 9520), and SMAD⅔ (1:1000, Cell Signaling, 8685).
Hematoxylin and eosin (H+E) staining was performed on some sections using standard protocols and Masson's Trichome stain for fibrosis was performed according to the manufacturer's instructions (ab150686, abcam). Formalin-fixed paraffin embedded sections were also used for in situ hybridization according to the manufacturer instructions (ACDbio). Briefly, the sections were blocked with hydrogen peroxide for 10 minutes at room temperature, followed by antigen retrieval with Pepsin (R2283, Sigma-Aldrich) in humidified chamber in 40° C. HybEZ oven. The Sik1 (526411, ACD), Sik2 (526421, ACD), or Sik3 (526431, ACD) probe was added to the sections for 2 hours in the humidified chamber at 40° C. Then, the signal was amplified (322310, ACD) and detected using Brown DAB kit (322310, ACD). […]

Data set [4] concerns whole kidney transcriptome. Kind of data set: bulk RNA-sequencing of whole kidney, adenine CKD mice. Type of data set: in vivo, mouse. The following applies: bulk RNA-seq; adenine vs control diet, or SK-124 vs vehicle in CKD mice. Here is the method:
FIGS. 6A-6F. The effects of SK-124 treatment at the transcriptomic level in adenine-induced mouse chronic kidney disease. RNA-seq was performed on whole kidney RNA samples (n=7/group) from FIG. 1. Volcano plot show gene regulated (>2-fold change, p(adj)<0.05) by CKD (versus control diet, A) or in CKD by SK-124 (versus vehicle control, B). In Volcano plot, representative fibrosis markers (Col3a1, Vim, Serpinel) and proximal tubule integrity (Lrp2. Atplai, and Hnf4a) are shown. Scatterplot (C) and heatmap (D) showing integration of individual RNA-seq comparisons. […] (E) Single cell RNA-sequencing was performed on dissociated kidneys from adenine diet fed mice treated with vehicle or SK-124 (n=4/group). […] (F) Relative cellularity of each annotated cluster is shown in pie chart format for adenine+vehicle (CKD-Veh) or adenine+SK-124 (CKD-SK-124) mice.
Isolated RNA samples from the mouse adenine diet study and human kidney organoid experiment were submitted to Novogene and bulk-RNA sequencing on NovaSeq X Plus Ilumina Novoseq Platform. Sequencing reads were mapped to the mouse reference genome (mm10/GRCm38) or human reference genome (GRCh38/hg38) using Salmon and differential gene expression analysis was performed using DESeq2.

Where [5] appears, read: SK-124 40 mg/kg oral gavage once daily, or PTH 80 mcg/kg/d IP.
The mark [6] stands for this setting: whole kidney RNA, RT-qPCR, 6 weeks adenine diet.

For the compound “PTH: Human PTH1-34, dissolved in 10 mM acetic acid”, in data set [1] (setting [5]), the CKD-MBD markers entry is reported as “did not cause these effects” and the kidney function entry is reported as “did not cause these effects”. The “fibrosis marker gene expression” value in data set [1] (whole kidney RT-qPCR, SK-124 40 mg/kg oral, or PTH 80 mcg/kg/d IP) was “did not cause these effects”. The “patterns of cisplatin-induced injury” value in the data set on human kidney organoids is reported as “minimal effects”.
As to `Nc1ncnc2nc[nH]c12` [adenine], the SIK2 protein level entry in data set [2] (kidney lysates, immunoblot, 0.2% adenine diet, 6 weeks) is listed as “increased; also recorded: robust SIK2 upregulation”. For the same compound, in data set [2] (setting [6]), the Sik1 expression result is “increased”, the Sik2 expression result is “increased” and the Sik3 expression result was “trends towards increased”. Also, in data set [3], the “fibrosis (trichrome staining)” value is listed as “increased”. Besides, in data set [4], the “injury markers (Col3a1, Vim, Serpine1)” value was “upregulated” and the “markers of intact proximal epithelial cells (Lrp2, Atpla1, Hnf4a) / epithelial cell integrity” value is on record as “reduced”.
